In ChEMBL document CHEMBL1201862, “PubChem BioAssay data set” (2004):
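Following 48 hours of exposure in 96-well plates, responses at five concentrations were used to interpolate endpoints linearly. GI50 is the concentration that inhibits growth by half.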 Calls of active or inactive are those of the source. Rule as the data show it: active = GI50 up to about 1.1 µM and inactive = higher.

Assays:
Assay in all cases: inhibition of tumour cell growth, NCI panel, 48 h
SF-539 = system: SF-539
DLD-1 = system: DLD-1
SW-620 = system: SW-620
DMS-273 = system: DMS-273
U-251 = system: U-251
K562 = system: K562
CCRF-CEM = system: CCRF-CEM
OVCAR-4 = system: OVCAR-4
SK-MEL-28 = system: SK-MEL-28
SNB-75 = system: SNB-75
M19-MEL = system: M19-MEL
HOP-18 = system: HOP-18
HOP-62 = system: HOP-62
SF-268 = system: SF-268
Malme-3M = system: Malme-3M
OVCAR-8 = system: OVCAR-8
LOX IMVI = system: LOX IMVI
KM-20L2 = system: KM-20L2
RXF 631 = system: RXF 631
COLO 205 = system: COLO 205
SK-OV-3 = system: SK-OV-3
RXF 393 = system: RXF 393
HCT-15 = system: HCT-15
NCI-H522 = system: NCI-H522
HCC 2998 = system: HCC 2998
TK-10 = system: TK-10
HL-60 = system: HL-60
RPMI-8226 = system: RPMI-8226
NCI-H226 = system: NCI-H226
SR = system: SR
ACHN = system: ACHN
M14 = system: M14
OVCAR-3 = system: OVCAR-3
SNB-78 = system: SNB-78
SNB-19 = system: SNB-19
CAKI-1 = system: CAKI-1
NCI-H460 = system: NCI-H460
UACC-62 = system: UACC-62
UACC-257 = system: UACC-257
DMS-114 = system: DMS-114
SN12C = system: SN12C
HCT-116 = system: HCT-116
HT-29 = system: HT-29
KM12 = system: KM12
UO-31 = system: UO-31
A549 = system: A549
EKVX = system: EKVX
SK-MEL-5 = system: SK-MEL-5
SK-MEL-2 = system: SK-MEL-2
SF-295 = system: SF-295
XF498 = system: XF498
OVCAR-5 = system: OVCAR-5
MOLT-4 = system: MOLT-4
786-0 = system: 786-0
HOP-92 = system: HOP-92
NCI-H23 = system: NCI-H23
LXFL 529 = system: LXFL 529
A498 = system: A498
IGROV-1 = system: IGROV-1

## CC1(C)OC(=O)C(c2ccsc2)C(=O)O1
SF-539
  GI50: > 100 µM (inactive)
DLD-1
  GI50: > 100 µM (inactive)
SW-620
  GI50: > 100 µM (inactive)
DMS-273
  GI50: > 100 µM (inactive)
U-251
  GI50: > 100 µM (inactive)
K562
  GI50: > 100 µM (inactive)
CCRF-CEM
  GI50: > 100 µM (inactive)
OVCAR-4
  GI50: > 100 µM (inactive)
SK-MEL-28
  GI50: > 100 µM (inactive)
SNB-75
  GI50: > 100 µM (inactive)
M19-MEL
  GI50: > 100 µM (inactive)
HOP-18
  GI50: > 100 µM (inactive)
HOP-62
  GI50: > 100 µM (inactive)
SF-268
  GI50: > 100 µM (inactive)
Malme-3M
  GI50: > 100 µM (inactive)
OVCAR-8
  GI50: > 100 µM (inactive)
LOX IMVI
  GI50: > 100 µM (inactive)
KM-20L2
  GI50: > 100 µM (inactive)
RXF 631
  GI50: > 100 µM (inactive)
COLO 205
  GI50: > 100 µM (inactive)
SK-OV-3
  GI50: > 100 µM (inactive)
RXF 393
  GI50: > 100 µM (inactive)
HCT-15
  GI50: > 100 µM
NCI-H522
  GI50: > 100 µM (inactive)
HCC 2998
  GI50: > 100 µM (inactive)
TK-10
  GI50: > 100 µM (inactive)
HL-60
  GI50: > 100 µM (inactive)
RPMI-8226
  GI50: > 100 µM (inactive)
NCI-H226
  GI50: > 100 µM (inactive)
SR
  GI50: > 100 µM (inactive)
ACHN
  GI50: > 100 µM (inactive)
M14
  GI50: > 100 µM (inactive)
OVCAR-3
  GI50: > 100 µM (inactive)
SNB-78
  GI50: > 100 µM (inactive)
SNB-19
  GI50: > 100 µM (inactive)
CAKI-1
  GI50: > 100 µM (inactive)
NCI-H460
  GI50: > 100 µM (inactive)
UACC-62
  GI50: > 100 µM (inactive)
UACC-257
  GI50: > 100 µM (inactive)
DMS-114
  GI50: > 100 µM (inactive)
SN12C
  GI50: > 100 µM (inactive)
HCT-116
  GI50: > 100 µM (inactive)
HT-29
  GI50: > 100 µM (inactive)
KM12
  GI50: > 100 µM (inactive)
UO-31
  GI50: > 100 µM (inactive)
A549
  GI50: > 100 µM (inactive)
EKVX
  GI50: > 100 µM (inactive)
SK-MEL-5
  GI50: > 100 µM (inactive)
SK-MEL-2
  GI50: > 100 µM (inactive)
SF-295
  GI50: > 100 µM (inactive)
XF498
  GI50: > 100 µM (inactive)
OVCAR-5
  GI50: > 100 µM (inactive)
MOLT-4
  GI50: > 100 µM (inactive)
786-0
  GI50: > 100 µM (inactive)
HOP-92
  GI50: > 100 µM (inactive)
NCI-H23
  GI50: > 100 µM (inactive)
LXFL 529
  GI50: > 100 µM (inactive)

## CC1OC(n2cc(F)c(=O)[nH]c2=O)C=CC1O (stereo unspecified)
SF-539
  GI50: > 100 µM (inactive)
DLD-1
  GI50: > 100 µM (inactive)
SW-620
  GI50: > 46 µM (inactive)
DMS-273
  GI50: > 100 µM (inactive)
U-251
  GI50: > 100 µM (inactive)
K562
  GI50: > 57.8 µM (inactive)
CCRF-CEM
  GI50: > 51.3 µM (inactive)
OVCAR-4
  GI50: > 100 µM (inactive)
SK-MEL-28
  GI50: > 100 µM (inactive)
A498
  GI50: > 100 µM (inactive)
SNB-75
  GI50: > 100 µM (inactive)
M19-MEL
  GI50: > 100 µM (inactive)
HOP-18
  GI50: > 100 µM (inactive)
HOP-62
  GI50: > 100 µM (inactive)
SF-268
  GI50: > 100 µM (inactive)
Malme-3M
  GI50: > 100 µM (inactive)
OVCAR-8
  GI50: > 100 µM (inactive)
LOX IMVI
  GI50: > 43.2 µM (inactive)
KM-20L2
  GI50: > 100 µM (inactive)
RXF 631
  GI50: > 100 µM (inactive)
COLO 205
  GI50: > 100 µM (inactive)
SK-OV-3
  GI50: > 100 µM (inactive)
RXF 393
  GI50: > 100 µM (inactive)
HCT-15
  GI50: > 100 µM
NCI-H522
  GI50: > 100 µM (inactive)
HCC 2998
  GI50: > 100 µM (inactive)
TK-10
  GI50: > 100 µM (inactive)
HL-60
  GI50: 37.2 µM (inactive)
RPMI-8226
  GI50: > 92.3 µM (inactive)
NCI-H226
  GI50: > 100 µM (inactive)
SR
  GI50: > 100 µM (inactive)
ACHN
  GI50: > 100 µM (inactive)
M14
  GI50: > 100 µM (inactive)
OVCAR-3
  GI50: > 100 µM (inactive)
SNB-78
  GI50: > 100 µM (inactive)
SNB-19
  GI50: > 100 µM (inactive)
CAKI-1
  GI50: > 100 µM (inactive)
NCI-H460
  GI50: > 100 µM (inactive)
UACC-62
  GI50: > 100 µM (inactive)
UACC-257
  GI50: > 100 µM (inactive)
DMS-114
  GI50: > 100 µM (inactive)
SN12C
  GI50: > 100 µM (inactive)
HCT-116
  GI50: > 100 µM (inactive)
HT-29
  GI50: > 100 µM (inactive)
KM12
  GI50: > 100 µM (inactive)
UO-31
  GI50: > 100 µM (inactive)
A549
  GI50: > 100 µM (inactive)
EKVX
  GI50: > 100 µM (inactive)
SK-MEL-5
  GI50: > 100 µM (inactive)
SK-MEL-2
  GI50: > 100 µM (inactive)
SF-295
  GI50: > 100 µM (inactive)
XF498
  GI50: > 100 µM (inactive)
OVCAR-5
  GI50: > 100 µM (inactive)
MOLT-4
  GI50: > 100 µM (inactive)
786-0
  GI50: > 100 µM (inactive)
HOP-92
  GI50: > 100 µM (inactive)
NCI-H23
  GI50: > 100 µM (inactive)
LXFL 529
  GI50: > 100 µM (inactive)
IGROV-1
  GI50: > 100 µM (inactive)
